# Results taken from US7037931B2, “CCK-1 receptor modulators” (Janssen Pharmaceutica N.V., priority 2002, dated 2006).
row,melting point [°C],Compound
1,280 to 285,COc1ccc(-n2nc(C[C@H](C(=O)[O-])c3cccc(C)c3)cc2-c2ccc(Cl)c(Cl)c2)cc1.[Na+] (stereo in doubt) [Example 505]
2,295.5 to 297.5,"COc1ccc(-n2nc(C[C@H](C(=O)[O-])c3cccc(C)c3)cc2-c2ccc(Cl)c(Cl)c2)cc1.[Na+] [Example 1, (S)-Sodium; 3-[5-(3,4-dichloro-phenyl)-1-(4-methoxy-phenyl)-1H-pyrazol-3-yl]-2-m-tolyl-propionate]"
3,39.5 to 43.2,"CON(C)C(=O)c1ccc(Cl)c(Cl)c1 [Example 511, 3,4-Dichloro-N-methoxy-N-methyl-benzamide]"
